Target: α-glucosidase
Assay: pNPG hydrolysis absorbance assay at […] nm, pH […] °C
Format: biochemical

COc1cc2c(cc1O)CCN[C@]21CS[C@@H]2c3c(OC(C)=O)c(C)c4c(c3[C@H](COC1=O)N1[C@@H]2[C@H]2c3c(cc(C)c(OC)c3O)C[C@@H]([C@@H]1O)N2C)OCO4 [Trabectedin]
IC50: 1260 ± 700 nM
